Results on one compound are retold here after patent US9840716B2, “Resveratrol-enriched rice and the use thereof” (REPUBLIC OF KOREA (MANAGEMENT: RURAL DEVELOPMENT …, priority 2012, dated 2017).

The structures appear in SMILES notation.

For test [1], the system named is animal models (mice) induced with a metabolic disease by a long-term high fat diet. The test can be described thus: Comparative measurement of blood glucose in animal models induced with a metabolic disease. The format is in vivo, C57BL/6 inbred mice. Particulars: 12 weeks of feeding, compared with control or comparison groups. The text has this: The effects of rice containing resveratrol of the present invention at high concentration on a metabolic disease were examined using animal models (mice) induced with a metabolic disease by a long-term high fat diet. Particularly, each of 15 C57BL/6 inbred mice was fed with a high fat diet for 12 weeks, thereby establishing models induced with a metabolic disease such as diabetes, obesity, hyperlipidemia, hypercholesterolemia, etc. Next, the feed produced from seeds of transformed rice or Dongjin rice was distributed to animals for 12 weeks. After 12 weeks of distribution, via blood sampling from a tail vein once every 3 weeks, blood glucose, cholesterol, etc., were analyzed, thereby examining the effects of resveratrol-enriched transgenic rice and transformed rice in animal models induced with a metabolic disease. As described above, after feeding feed for experimental animals, in which carbohydrate components were replaced with Dongjin rice and resveratrol-enriched transgenic rice to mice induced with a metabolic disease, the level of blood glucose was measured (FIG. 2). […] As described above, after feeding the feed, in which carbohydrate components were replaced with Dongjin rice and resveratrol-enriched transgenic rice, to mice with an induced metabolic disease, the level of blood glucose was measured (FIG. 5).

The test system of another test is yeasts. Conditions: on average, when resveratrol is added; cited from earlier work.

On to `Oc1ccc(C=Cc2cc(O)cc(O)c2)cc1` [resveratrol], for which, in test [1], the “blood glucose level (result in words)” value is “did not show a remarkable difference”. The “increase of the life span of yeasts” value in the test on yeasts is 70%.
